Results: patent US5105020A, “Cycloalkane derivatives” (Imperial Chemistries Industries PLC, priority 1988, dated 1992)

Legend:
5-LO [1] = experiment: Test c): ex vivo assay after oral administration, A23187 challenge of blood, LTB4 radioimmunoassay; format: in vivo
Procedure: c) An ex vivo assay system, which is a variation of test b) above, involving administration of a test compound (usually orally as the suspension produced when a solution of the test compound in dimethylsulphoxide is added to carboxymethylcellulose), blood collection, heparinisation, challenge with A23187 and radioimmunoassay of LTB4 and TxB2. This test provides an indication of the bioavailability of a test compound as an inhibitor of 5-LO or cyclooxygenase.

cyclooxygenase = experiment: Test b): heparinised human blood, A23187 challenge, TxB2 radioimmunoassay; format: cell-based
Procedure: (§1) b) An in vitro assay system involving incubating a test compound with heparinised human blood, prior to challenge with the calcium ionophore A23187 and then indirectly measuring the inhibitory effects on 5-LO by assaying the amount of […] using the specific radioimmunoassay described by Carey and Forder (F. Carey and R.A. Forder, Brit. J. Pharmacol. 1985, 84, 34P) which involves the use of a protein-LTB4 conjugate produced using the procedure of Young et alia (Prostaglandins, 1983, 26(4), 605-613). The effects of a test compound on the enzyme cyclooxygenase (which is involved in the alternative metabolic pathway for arachidonic acid and gives rise to prostaglandins, thromboxanes and related metabolites) may be measured at the same time using the specific radioimmunoassay for thromboxane B2 (TxB2) described by Carey and Forder (see above). This test provides an indication of the effects of a test compound against 5-LO and also cyclooxygenase in the presence of blood cells and proteins. It permits the selectivity of the inhibitory effect on 5-LO or cyclooxygenase to be assessed.

5-LO [2] = experiment: Test b): heparinised human blood, A23187 challenge, LTB4 radioimmunoassay; format: cell-based
Procedure: as §1

IC50 (cyclooxygenase): > 40000 nM
IC50 (5-LO [2]): 200 nM
SMILES: CO[C@@H]1CCC[C@]1(OC)c1cccc(OCc2ccc3ccccc3c2)c1 (relative stereo) [trans-1,2-dimethoxy-1-[3-(naphth-2-ylmethoxy)phenyl]cyclopentane]
ED50 (5-LO [1]): < 100 mg/kg
